The supplement of paper PMC10627819

What was measured:
Assay in all cases: Bliss interaction score (quartile over a dose matrix) (fitness difference); higher = more antagonism (negative = synergy)
[1] = system: B. subtilis 168
Method in brief: (§1)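 OD595 was read at entry into stationary phase and expressed relative to the robust mean of the no-drug wells on the same plate, capped at 1. The resulting ratio is the fitness value. The Bliss score, observed fitness minus product-based expected fitness with single-drug fitness inferred from combinations, is summarised by quartiles over technical, biological and donor/recipient replicates.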

[2] = system: S. aureus DSM 20231
Method in brief: as §1

[3] = system: S. aureus Newman
Method in brief: as §1

[4] = system: S. pneumoniae D39V
Method in brief: as §1
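Also: first quartile when negative (synergy) and third quartile when positive (antagonism).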

Work on `COc1cccc2c1C(=O)c1c(O)c3c(c(O)c1C2=O)C[C@@](O)(C(=O)CO)C[C@@H]3O[C@H]1C[C@H](N)[C@H](O)[C@H](C)O1` [Doxorubicin] + CO[C@@]12[C@H](COC(N)=O)C3=C(C(=O)C(C)=C(N)C3=O)N1C[C@@H]1N[C@@H]12 [MitomycinC] yielded a Bliss interaction score [1] of -0.269, a Bliss interaction score [2] of -0.0314 and a Bliss interaction score [3] of 0.122. For the same compound, the Bliss interaction score [4] was -0.0709.

`CO/N=C(\C(=O)N[C@@H]1C(=O)N2C(C(=O)O)=C(COC(C)=O)CS[C@H]12)c1csc(N)n1` [Cefotaxime] + CN[C@H](CC(C)C)C(=O)N[C@H]1C(=O)N[C@@H](CC(N)=O)C(=O)N[C@H]2C(=O)N[C@H]3C(=O)N[C@H](C(=O)N[C@H](C(=O)O)c4cc(O)cc(O)c4-c4cc3ccc4O)[C@H](O[C@H]3C[C@](C)(N)[C@@H](O)[C@H](C)O3)c3ccc(c(Cl)c3)Oc3cc2cc(c3O[C@@H]2O[C@H](CO)[C@@H](O)[C@H](O)[C@H]2O[C@H]2C[C@](C)(NCc3ccc(-c4ccc(Cl)cc4)cc3)[C@@H](O)[C@H](C)O2)Oc2ccc(cc2Cl)[C@H]1O [Oritavancin] gave a Bliss interaction score [1] of 0.0516, a Bliss interaction score [2] of 0.0947 and a Bliss interaction score [3] of 0.0965. The Bliss interaction score [4] was -0.106.

With `CC(=O)Oc1ccccc1C(=O)O` [Acetylsalicylicacid] + C1=CC(=CC(=C1)Cl)NN=C(C#N)C#N [CCCP] the Bliss interaction score [1] was -0.0436, the Bliss interaction score [2] was -0.138 and the Bliss interaction score [3] was -0.0296. It also gave a Bliss interaction score [4] of -0.161.

With `N#CC(C#N)=NNc1cccc(Cl)c1` [CCCP] + C[n+]1ccc(-c2cc[n+](C)cc2)cc1 [Paraquat] the Bliss interaction score [1] was 0.0508, the Bliss interaction score [2] was -0.0508 and the Bliss interaction score [3] was -0.0253. It also gave a Bliss interaction score [4] of 0.0866.

`O=C(O)c1cn(C2CC2)c2cc(N3CCNCC3)c(F)cc2c1=O` [Ciprofloxacin] + O=C(O)[C@H]1/C(=C/CO)O[C@@H]2CC(=O)N21 [Clavulanic] gave a Bliss interaction score [1] of -0.154, a Bliss interaction score [2] of -0.184 and a Bliss interaction score [3] of 0.18. It also gave a Bliss interaction score [4] of -0.0997.

For `CC(=O)Oc1ccccc1C(=O)O` [Acetylsalicylicacid] + CCP(CC)CC.CC(=O)OC[C@@H]1[C@H]([C@@H]([C@H]([C@@H](O1)[S-])OC(=O)C)OC(=O)C)OC(=O)C.[Au+] [Auranofin], the Bliss interaction score [1] was 0.0526, the Bliss interaction score [2] was -0.0726 and the Bliss interaction score [3] was 0.0597. For the same compound, the Bliss interaction score [4] was 0.0631.

`CO/N=C(\C(=O)N[C@@H]1C(=O)N2C(C(=O)O)=C(COC(N)=O)CS[C@H]12)c1ccco1` [Cefuroxime] + CC[C@H]1OC(=O)[C@H](C)[C@@H](O[C@H]2C[C@@](C)(OC)[C@@H](O)[C@H](C)O2)[C@H](C)[C@@H](O[C@@H]2O[C@H](C)C[C@H](N(C)C)[C@H]2O)[C@](C)(O)C[C@@H](C)C(=O)[C@H](C)[C@@H](O)[C@]1(C)O [Erythromycin] gave a Bliss interaction score [1] of -0.0464, a Bliss interaction score [2] of -0.255 and a Bliss interaction score [3] of 0.0555. The Bliss interaction score [4] was 0.0365.

Work on `N#CC(C#N)=NNc1cccc(Cl)c1` [CCCP] + CCC(C)C1C(=O)NC(=C)C(=O)NC(C(=O)NC(CSCC(C(=O)N1)NC(=O)/C(=C/C)/NC(=O)C(C(C)CC)N)C(=O)NC2C(SCC(NC(=O)CNC(=O)C3CCCN3C2=O)C(=O)NC(CCCCN)C(=O)NC4C(SCC(NC(=O)CNC(=O)C(NC(=O)C(NC(=O)C(NC(=O)CNC4=O)C)CC(C)C)CCSC)C(=O)NC(CC(=O)N)C(=O)NC(CCSC)C(=O)NC(CCCCN)C(=O)NC5C(SCC6C(=O)NC(C(=O)NC(CSC(C(C(=O)N6)NC(=O)C(NC5=O)C)C)C(=O)NC(CO)C(=O)NC(C(C)CC)C(=O)NC(CC7=CN=CN7)C(=O)NC(C(C)C)C(=O)NC(=C)C(=O)NC(CCCCN)C(=O)O)CC8=CN=CN8)C)C)C)CC(C)C [Nisin] yielded a Bliss interaction score ([1]; main component drawn) of 0.0522, a Bliss interaction score ([2]; main component drawn) of 0.0712 and a Bliss interaction score ([3]; main component drawn) of -0.0401. For the same compound, the Bliss interaction score ([4]; main component drawn) was -0.0317.

`CO/N=C(\C(=O)N[C@@H]1C(=O)N2C(C(=O)O)=C(COC(C)=O)CS[C@H]12)c1csc(N)n1` [Cefotaxime] + O=C(O)[C@H]1/C(=C/CO)O[C@@H]2CC(=O)N21 [Clavulanic] showed a Bliss interaction score [1] of -0.0436, a Bliss interaction score [2] of 0.176 and a Bliss interaction score [3] of 0.279. For the same compound, the Bliss interaction score [4] was -0.0534.

Work on `CN(C)[C@@H]1C(O)=C(C(N)=O)C(=O)[C@@]2(O)C(O)=C3C(=O)c4c(O)ccc(Cl)c4[C@@](C)(O)[C@H]3C[C@@H]12` [Clortetracycline] + Cc1ncc([N+](=O)[O-])n1CCO [Metronidazole] yielded a Bliss interaction score [1] of 0.141, a Bliss interaction score [2] of 0.0551 and a Bliss interaction score [3] of 0.0714. For the same compound, the Bliss interaction score [4] was 0.104.

`CO/N=C(\C(=O)N[C@@H]1C(=O)N2C(C(=O)O)=C(COC(C)=O)CS[C@H]12)c1csc(N)n1` [Cefotaxime] + CC[C@H]1OC(=O)[C@H](C)[C@@H](O[C@H]2C[C@@](C)(OC)[C@@H](O)[C@H](C)O2)[C@H](C)[C@@H](O[C@@H]2O[C@H](C)C[C@H](N(C)C)[C@H]2O)[C@](C)(OC)C[C@@H](C)C(=O)[C@H](C)[C@@H](O)[C@]1(C)O [Clarithromycin] was tested, and the Bliss interaction score [1] was 0.0567, the Bliss interaction score [2] was 0.0514 and the Bliss interaction score [3] was -0.0626. For the same compound, the Bliss interaction score [4] was 0.0611.

Compound `CO/N=C(\C(=O)N[C@@H]1C(=O)N2C(C(=O)O)=C(COC(N)=O)CS[C@H]12)c1ccco1` [Cefuroxime] + Oc1cc(Cl)ccc1Oc1ccc(Cl)cc1Cl [Triclosan] has a Bliss interaction score [1] of 0.0538, a Bliss interaction score [2] of 0.0932 and a Bliss interaction score [3] of -0.0309. The Bliss interaction score [4] was 0.0619.

In the case of `CC(=O)Oc1ccccc1C(=O)O` [Acetylsalicylicacid] + CO/N=C(\C(=O)N[C@@H]1C(=O)N2C(C(=O)O)=C(COC(N)=O)CS[C@H]12)c1ccco1 [Cefuroxime], the Bliss interaction score [1] was 0.177, the Bliss interaction score [2] was -0.628 and the Bliss interaction score [3] was 0.0943. For the same compound, the Bliss interaction score [4] was 0.057.

With `CO/N=C(\C(=O)N[C@@H]1C(=O)N2C(C(=O)O)=C(COC(N)=O)CS[C@H]12)c1ccco1` [Cefuroxime] + CC[C@H]1OC(=O)[C@H](C)[C@@H](O[C@H]2C[C@@](C)(OC)[C@@H](O)[C@H](C)O2)[C@H](C)[C@@H](O[C@@H]2O[C@H](C)C[C@H](N(C)C)[C@H]2O)[C@](C)(OC)C[C@@H](C)C(=O)[C@H](C)[C@@H](O)[C@]1(C)O [Clarithromycin] the Bliss interaction score [1] was -0.0354, the Bliss interaction score [2] was -0.249 and the Bliss interaction score [3] was 0.0734. It also gave a Bliss interaction score [4] of 0.0629.

For `CC(=O)Oc1ccccc1C(=O)O` [Acetylsalicylicacid] + CN[C@@H]1[C@H](O[C@H]2[C@H](O[C@H]3[C@H](O)[C@@H](O)[C@H](N=C(N)N)[C@@H](O)[C@@H]3N=C(N)N)O[C@@H](C)[C@]2(O)C=O)O[C@@H](CO)[C@H](O)[C@H]1O [Streptomycin], the Bliss interaction score [1] was 0.222, the Bliss interaction score [2] was -0.0889 and the Bliss interaction score [3] was 0.0762. It also gave a Bliss interaction score [4] of -0.0479.

Work on `CC(=O)Oc1ccccc1C(=O)O` [Acetylsalicylicacid] + COc1ccc(C[C@H](N)C(=O)N[C@H]2[C@@H](O)[C@H](n3cnc4c(N(C)C)ncnc43)O[C@@H]2CO)cc1 [Puromycin] yielded a Bliss interaction score [1] of 0.0812, a Bliss interaction score [2] of 0.0722 and a Bliss interaction score [3] of -0.0494. For the same compound, the Bliss interaction score [4] was 0.149.
